Experimental data reported in patent US7291618B2, “Therapeutic compounds” (Pfizer Inc, priority 2004, dated 2007).

Experiments:
DPP-IV = target: T1, DPP-IV (Homo sapiens, UniProt P27487); test: In vitro Assay for DPP-IV Inhibition; format: biochemical; conditions: read-out: IC50 against DPP-IV
T1 construct: purchased MP Biomedicals, Livermore, Calif
Method: 150 μL of an enzyme-substrate solution is pipetted into microtiter wells of a polystyrene 96-well plate, and maintained at 4° C. The enzyme-substrate solution comprises 50 μM Gly-Pro-4-methoxy-β-naphthylamide hydrochloride in 50 mM Tris assay buffer pH 7.3 containing 0.1M sodium chloride, 0.1% (v/v) Triton and 50 μU/mL DPP-IV (MP Biomedicals, Livermore, Calif.; DPP-IV 5 mU/mL stock). 5 μL per well of the compound of formula (I) is added, bringing the final concentrations of the formula (I) compound to between 3 μM and 10 nM per well.
Controls. Enzyme is omitted from four (4) wells, as a reagent blank. 5 μL of 3 mM Diprotin A (Bachem Bioscience, Inc.; King of Prussia, Pa.) is added to four wells as a positive quality control, providing a final Diprotin A concentration of 100 μM. To measure total enzyme activity (i.e., a negative control), without the influence of any compounds of formula (I), 5 μL of distilled water is added to four wells.
The entire assay is incubated overnight (between 14 and 18 hours) at 37° C. […]

[1] = rat, in vivo, po, 5 mg/kg
Method: (§1) In this experiment, male Sprague-Dawley rats (200-250 grams) implanted with jugular vein cannulas (JVC) were obtained from Charles River Laboratories. Each compound was administered to two rats or by oral gavage. The oral dose was administered as a solution in 0.5% methycellulose with a dose volume of 10 mL/kg. The amount of each compound administered was 5 mg/kg body weight. Blood samples (0.25 mL) were collected at multiple time points from 0-24 hours and placed into tubes containing lithium heparin (Becton Dickinson, Microtainer®). The blood samples were then centrifuged at 12000 rpm for 10 minutes). Plasma aliquots were taken for determination of compound plasma concentrations (pharmacokinetic analysis). The plasma samples were frozen at −70° C. until analysis.
(§2) The rat plasma samples were analyzed for compound concentrations by LC/MS/MS (Applied Biosystems API 4000 mass spectrometer). In brief, compound standard curves were prepared in control rat plasma with a dynamic range of 1.0-2000 ng/mL. Aliquots (0.02 mL) of both standards and samples Were placed into Marsh™ tubes in a 96-well block. Proteins were precipitated by addition of 0.1 mL acetonitrile containing 0.1 μg/mL of internal standard. The 96-well blocks were vortexed and then centrifuged at 3000 rpm for 5 minutes. The resulting supernatant was removed and placed into a new 96-well block and taken to dryness at 50° C. under a nitrogen stream. Residues were reconstituted in mobile phase (60% 5 mM ammonium acetate and 40% acetonitrile). Aliquots (0.01 mL) were then injected onto the LC/MS/MS for analysis.

[2] = Comparative Rat Pharmacokinetics Experiments (plasma concentrations over time after oral gavage); conditions: male, Sprague-Dawley, 5 mg/kg
Method: as §1, §2

T1 sequence (P27487 whole entry, species assumed): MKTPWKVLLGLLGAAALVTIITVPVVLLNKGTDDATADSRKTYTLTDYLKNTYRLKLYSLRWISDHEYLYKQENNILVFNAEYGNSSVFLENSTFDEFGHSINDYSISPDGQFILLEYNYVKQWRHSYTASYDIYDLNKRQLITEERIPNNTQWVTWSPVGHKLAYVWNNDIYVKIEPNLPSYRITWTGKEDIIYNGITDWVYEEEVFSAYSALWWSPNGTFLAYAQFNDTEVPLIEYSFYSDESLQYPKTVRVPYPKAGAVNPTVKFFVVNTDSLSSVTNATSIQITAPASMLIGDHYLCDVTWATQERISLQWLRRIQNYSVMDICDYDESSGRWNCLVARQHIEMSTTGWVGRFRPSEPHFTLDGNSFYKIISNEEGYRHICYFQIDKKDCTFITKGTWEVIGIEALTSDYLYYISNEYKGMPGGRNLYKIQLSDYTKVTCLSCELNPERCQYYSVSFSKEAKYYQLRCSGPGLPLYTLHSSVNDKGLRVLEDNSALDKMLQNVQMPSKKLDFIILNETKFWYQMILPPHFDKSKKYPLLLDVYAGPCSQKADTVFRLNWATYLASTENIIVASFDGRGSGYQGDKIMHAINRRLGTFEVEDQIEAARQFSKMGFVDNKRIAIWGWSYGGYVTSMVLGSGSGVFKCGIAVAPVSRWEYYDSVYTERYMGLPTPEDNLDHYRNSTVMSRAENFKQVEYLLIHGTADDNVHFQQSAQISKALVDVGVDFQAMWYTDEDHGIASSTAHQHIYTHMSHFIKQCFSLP

Compound	IC50 (DPP-IV)	plasma concentrations achieved and maintained, compared with the comparator compound [1]	concentration at 0.25 h [2]	concentration at 0.5 h [2]	concentration at 0.75 h [2]	concentration at 1 h [2]	concentration at 2 h [2]	concentration at 4 h [2]	concentration at 6 h [2]	concentration at 8 h [2]
N#Cc1nccnc1N1CCN([C@@H]2CN[C@H](C(=O)N3C[C@@H](F)[C@@H](F)C3)C2)CC1 (relative stereo) [Example 10, ((2S,4S)-4-(4-(3-Cyanopyrazin-2-yl)piperazin-1-yl)pyrrolidin-2-yl)-((3R*,4S*)-3,4-difluoropyrrolidin-1-yl)-methanone]	3.5 nM	–	–	–	–	–	–	–	–	–
O=C([C@@H]1C[C@H](N2CCN(c3ncccn3)CC2)CN1)N1CCC(F)(F)C1 [CPD 113, (3,3-Difluoropyrrolidin-1-yl)-((2S,4S)-4-(4-(pyrimidin-2-yl)piperazin-1-yl)pyrrolidin-2-yl)-methanone]	–	significantly higher plasma concentrations	1410 ng/mL	1320 ng/mL	979 ng/mL	768 ng/mL	289 ng/mL	97.8 ng/mL	49.3 ng/mL	32.8 ng/mL
